Key:
androgen receptor = tested on: androgen receptor
Text: Assays to determine whether the compounds of the present invention are AR agonists or antagonists are well known to a person skilled in the art. For example, AR agonistic activity can be determined by monitoring the ability of the SARM compounds to maintain and/or stimulate the growth of AR containing tissue such as prostate and seminal vesicles, as measured by weight. AR antagonistic activity can be determined by monitoring the ability of the SARM compounds to inhibit the growth of AR containing tissue.

spermatogenesis = conditions: weekly intramuscular injections, men receiving therapy; cited from earlier work

| SMILES | action at the androgen receptor in vivo (androgen receptor) | anabolic and androgenic effects in vivo (androgen receptor) | men with azoospermia or severe oligospermia (less than 3 million sperm per ml) and infertility (spermatogenesis) [%] |
| --- | --- | --- | --- |
| CC(=O)Nc1ccc(OC[C@](C)(O)C(=O)Nc2ccc([N+](=O)[O-])c(C(F)(F)F)c2)cc1 [Compound (1), 3-[4-(acetylamino)phenoxy]-2-Hydroxy-2-methyl-N-[3trifluoromethyl-4-nitro-phenyl)-proprionamide] | partial agonist | strong anabolic and weakly androgenic effects |  |
| CCCCCCC(=O)O[C@H]1CC[C@H]2[C@@H]3CCC4=CC(=O)CC[C@]4(C)[C@H]3CC[C@]12C [testosterone enanthate] |  |  | 98 |

From patent US7968721B2, “Large-scale synthesis of selective androgen receptor modulators” (University of Tennessee Research Foundation, priority 2003, dated 2011)
